Experimental data taken from PubChem BioAssay AID720616 (Broad Institute, 2013).

System: U-251 glioblastoma viability, CellTiter-Glo ATP luminescence
Test: cytotoxicity in U-251 glioma cells – cell-based, CellTiter-Glo ATP luminescence, several timepoints, dry powder, mechanism study for HRAS target identification, late-stage follow-up (AID 720616)

CC(C)(C)OC(=O)NCCOCCOCCOc1ccc(N(C(=O)CCl)C(C(=O)NCCc2ccccc2)c2cccs2)cc1Cl (centres undefined)
AC50 (measured here: 8 h treatment): 912 nM
AC50 (measured here: 24 h treatment): 1220 nM
AC50 (measured here: 48 h treatment): 2210 nM

Cc1onc(C(=O)N2CCN(C(c3ccc(Cl)cc3)c3ccc(Cl)cc3)CC2)c1[N+](=O)[O-]
AC50 (measured here: 24 h treatment): > 70000 nM
AC50 (measured here: 48 h treatment): > 70000 nM

COc1ccc(N(C(=O)CCl)C(C(=O)NCCc2ccccc2)c2cccs2)cc1Cl (centres undefined)
AC50 (measured here: 8 h treatment): 734 nM
AC50 (measured here: 24 h treatment): 709 nM
AC50 (measured here: 48 h treatment): 1380 nM

C#CCCCC(=O)NCCOCCOCCOc1ccc(N(C(=O)CCl)C(C(=O)NCCc2ccccc2)c2cccs2)cc1Cl (centres undefined)
AC50 (measured here: 8 h treatment): 7550 nM
AC50 (measured here: 24 h treatment): 4090 nM
AC50 (measured here: 48 h treatment): 10200 nM

COC(=O)c1ccc([C@@H]2c3[nH]c4ccccc4c3C[C@@H](C(=O)OC)N2C(=O)CCl)cc1
AC50 (measured here: 8 h treatment): 1100 nM
AC50 (measured here: 24 h treatment): 856 nM
AC50 (measured here: 48 h treatment): 1250 nM
